The target of one series is T1, THP-1 cell NLRP3 (Homo sapiens, UniProt Q96P20).
T1 construct: endogenous in cells; host or cells: THP-1 cells, PMA-differentiated, stimulated with LPS and nigericin
In words: Inhibitory activity against cell NLRP3 inflammasomes in THP-1 cells (LPS + nigericin, ELISA of supernatant). In kind it is cell-based. Particulars: PMA-differentiated THP-1 cells, LPS 500 ng/mL 3 h, compound 1 h, nigericin 30 min; human IL-10 (so in the source) in supernatant by ELISA. In short, it runs like this: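 PMA-differentiated (10 ng/mL, 16 h) THP-1 cells primed with 500 ng/mL LPS for 3 h in serum-free medium, then compound for 1 h (DMSO stock diluted 1:1000). Nigericin added for 30 min at 37 °C; IL-1β (printed as IL-10) in supernatant measured by ELISA.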

Series [1] can be described thus: Pharmacokinetic study in mice. The series is classed as in vivo, female C57BL/6J mice. Particulars: female, C57BL/6J, mouse, plasma; for clearance: read-out: Cl—obs iv (clearance rate) (converted); for Vd: read-out: Vss iv (distribution volume); for bioavailability: po 10 mg/kg vs iv 5 mg/kg, read-out: F% (absolute bioavailability); for Tmax: median, read-out: Tmax po (time to peak plasma concentration); for Cmax: read-out: Cmax po (peak concentration). As to the method: The compounds were prepared into solutions using a mixed vehicle composed of 5% dimethyl sulfoxide, 20% (30% solutol), and 75% normal saline. The compound solutions were intragastrically administered to female C57BL/6J mice at a dose of 10 mg/kg, and the blood collection time points were: 15 min, 30 min, 1 h, 2 h, 4 h, 6 h, 8 h, and 24 h.
The compounds were prepared into solutions using a mixed vehicle composed of 5% dimethyl sulfoxide, 20% (30% solutol), and 75% normal saline. The compound solutions were intravenously injected into female C57BL/6J mice at a dose of 5 mg/kg, and the blood collection time points were: 5 min, 15 min, 30 min, 1 h, 2 h, 4 h, 6 h, 8 h, and 24 h.
The samples to be tested were taken out from a −80° C. freezer, naturally thawed at room temperature, and then vortexed for 5 min.
Plasma samples of 10 μL from different individuals were accurately pipetted into 1.5 mL centrifuge tubes.
900 μL of a 100 ng/mL internal standard working solution (a solution of tolbutamide in acetonitrile) was added, and the mixture was well mixed.
After 5 min of vortexing, centrifugation was performed at 12,000 rpm for 5 min.
50 μL of the supernatant was accurately pipetted into a 96-well plate to which water was added in advance at 150 μL/well.
After 5 min of vortexing, LC-MS/MS analysis was performed.
The results of the test substance concentrations were output by Analyst 1.6.3 of AB Sciex.
Parameters such as mean, standard deviation, and coefficient of variation (excluding those output directly by Analyst 1.6.3) were calculated using Microsoft Excel. PK parameters were calculated using WinNonlin Phenoix 8.2 software NCA (Tmax was a median).

The nature of series [2]: Pharmacokinetic study in male SD rats. The series is classed as in vivo. As to conditions: rat, plasma; for clearance: read-out: Cl—obs iv (clearance rate) (converted); for Vd: read-out: Vss iv (distribution volume); for bioavailability: po 5 mg/kg vs iv 1 mg/kg, read-out: F% (absolute bioavailability); for Tmax: median, read-out: Tmax po (time to peak plasma concentration); for Cmax: read-out: Cmax po (peak concentration). On the procedure: Experimental Example 4: Pharmacokinetic Study of Compounds in Male SD Rats
The compounds were prepared into solutions using a mixed vehicle composed of 5% dimethyl sulfoxide, 20% (30% solutol), and 75% normal saline. The compound solutions were intragastrically administered to male SD rats at a dose of 5.0 mg/kg, and the blood collection time points were: 15 min, 30 min, 1 h, 2 h, 4 h, 6 h, 8 h, 10 h, and 24 h.
The compounds were prepared into solutions using a mixed vehicle composed of 5% dimethyl sulfoxide, 20% (30% solutol), and 75% normal saline. The compound solutions were intravenously injected into male SD rats at a dose of 1.0 mg/kg, and the blood collection time points were: 5 min, 15 min, 30 min, 1 h, 2 h, 4h, 6 h, 8h, 10 h, and 24 h.
Intravenous catheterization was performed on the animals the day before the administration. After the administration, blood samples of about 300 μL were collected from the jugular vein and placed into anticoagulation tubes containing EDTA-K2. The blood samples were centrifuged at 5000 rpm at 4° C. for 10 min to give plasma samples. The plasma samples were prepared within 30 min after blood collection. The plasma samples were stored in a −80° C. freezer before testing.

[3] abbreviates: iv 5 mg/kg, read-out: AUClast iv (0-24 h).
Setting [4] is: iv 5 mg/kg, read-out: tz1/2 iv (terminal half-life) (converted).
The mark [5] stands for this setting: po 10 mg/kg, read-out: AUClast po (0-24 h).
Where [6] appears, read: po 10 mg/kg, read-out: tz1/2 po (terminal half-life) (converted).
Setting [7] is: iv 1 mg/kg, read-out: AUClast iv (0-24 h).
The mark [8] stands for this setting: iv 1 mg/kg, read-out: tz1/2 iv (terminal half-life) (converted).
[9] abbreviates: po 5 mg/kg, read-out: AUClast po (0-24 h).
The mark [10] stands for this setting: po 5 mg/kg, read-out: tz1/2 po (terminal half-life) (converted).

The record followed here is US20260167637A1, “NLRP3 INFLAMMASOME INHIBITOR AND USE THEREOF” (TransThera Sciences (Nanjing), Inc., priority 2022, published 2026).

T1 sequence (Q96P20 whole entry): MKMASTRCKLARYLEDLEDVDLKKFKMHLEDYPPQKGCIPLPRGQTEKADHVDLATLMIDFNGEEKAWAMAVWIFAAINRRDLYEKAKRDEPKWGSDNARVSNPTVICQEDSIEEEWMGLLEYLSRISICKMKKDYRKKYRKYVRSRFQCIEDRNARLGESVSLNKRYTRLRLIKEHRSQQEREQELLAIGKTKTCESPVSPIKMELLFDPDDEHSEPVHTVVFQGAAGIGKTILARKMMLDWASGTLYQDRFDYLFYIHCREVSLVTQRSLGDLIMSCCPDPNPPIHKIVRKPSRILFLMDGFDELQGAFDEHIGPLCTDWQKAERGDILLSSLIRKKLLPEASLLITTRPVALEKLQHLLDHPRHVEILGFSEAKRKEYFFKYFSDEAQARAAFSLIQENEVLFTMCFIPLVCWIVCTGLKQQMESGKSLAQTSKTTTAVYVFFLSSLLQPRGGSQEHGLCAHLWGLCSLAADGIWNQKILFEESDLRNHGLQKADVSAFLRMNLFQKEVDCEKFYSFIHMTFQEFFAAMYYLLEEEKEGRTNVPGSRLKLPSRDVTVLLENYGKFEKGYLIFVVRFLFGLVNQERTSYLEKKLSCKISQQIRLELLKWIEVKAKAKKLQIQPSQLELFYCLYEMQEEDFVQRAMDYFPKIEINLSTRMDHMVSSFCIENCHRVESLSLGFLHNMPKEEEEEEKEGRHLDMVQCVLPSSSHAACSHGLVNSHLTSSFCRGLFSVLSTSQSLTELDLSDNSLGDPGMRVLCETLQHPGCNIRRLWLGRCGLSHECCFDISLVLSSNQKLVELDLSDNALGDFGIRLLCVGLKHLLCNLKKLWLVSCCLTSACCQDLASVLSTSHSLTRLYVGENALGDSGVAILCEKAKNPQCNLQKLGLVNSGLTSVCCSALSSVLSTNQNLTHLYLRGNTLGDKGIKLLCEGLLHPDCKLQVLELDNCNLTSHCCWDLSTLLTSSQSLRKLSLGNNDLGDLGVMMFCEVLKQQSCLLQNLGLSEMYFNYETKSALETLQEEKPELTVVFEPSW

Take `C#Cc1ccc(-c2nnc(N[C@@H]3CCCN(CCO)C3)cc2C2CC2)c(O)c1` [Compound 45, (R)-2-(4-Cyclopropyl-6-((1-(2-hydroxyethyl)piperidin-3-yl)amino)pyridazin-3-yl)-5-ethynylphenol]: the IC50 on THP-1 cell NLRP3 stood at 0.7 nM. Also, the AUC(0-t) amounted to 11400 ng·h/mL in series [1] (setting [3]), 19100 ng·h/mL in series [1] (setting [5]), 1920 ng·h/mL in series [2] (setting [7]) and 6840 ng·h/mL in series [2] (setting [9]). Also, the clearance in series [1] (iv 5 mg/kg) is 7.27 mL/min/kg; in series [2] (iv 1 mg/kg), 8.38 mL/min/kg. Besides, the Vd in series [1] (iv 5 mg/kg) is 1.47 L/kg; in series [2] (iv 1 mg/kg), 3.28 L/kg. In addition, the half-life is 3.57 h in series [1] (setting [4]), 3.18 h in series [1] (setting [6]), 5.63 h in series [2] (setting [8]) and 5.19 h in series [2] (setting [10]). For the same molecule, the values for the bioavailability in series [1] and in series [2] were 83.7% and 71.5%, respectively. Moreover, the Tmax was 1 h in series [1] (po 10 mg/kg) and 4 h in series [2] (po 5 mg/kg). Besides, the results for the Cmax in series [1] (po 10 mg/kg) and in series [2] (po 5 mg/kg) were 4130 ng/mL and 629 ng/mL, respectively.

Turning to `C#Cc1ccc(-c2nnc(N[C@@H]3CCCN(C)C3)c(C#N)c2C)c(O)c1` [Compound 103, (R)-6-(4-ethynyl-2-hydroxyphenyl)-5-methyl-3-((1-methylpiperidin-3-yl)amino)pyridazine-4-carbonitrile], the IC50 on THP-1 cell NLRP3 was 0.6 nM.

Regarding `C#Cc1ccc(-c2nnc(N[C@@H]3CCCN(C)C3)cc2C(C)C)c(O)c1` [Compound 81, (R)-5-ethynyl-2-(4-isopropyl-6-((1-methylpiperidin-3-yl)amino)pyridazin-3-yl)phenol], at THP-1 cell NLRP3, the half-inhibitory concentration (IC50) was found to be 1.1 nM.

Take `C#Cc1ccc(-c2nnc(N[C@@H]3CCCN(C)C3)c(=O)n2C)c(O)c1` [Compound 23, (R)-3-(4-ethynyl-2-hydoxyphenyl)-4-methyl-6-((1-methylpiperidin-3-yl)amino)-1,2,4-triazin-5(4H)-one]: the IC50 on THP-1 cell NLRP3 came to 2.4 nM. For the same molecule, the AUC(0-t) was 3230 ng·h/mL in series [1] (setting [3]), 5530 ng·h/mL in series [1] (setting [5]), 1860 ng·h/mL in series [2] (setting [7]) and 8480 ng·h/mL in series [2] (setting [9]). In addition, the clearance in series [1] (iv 5 mg/kg) is 25.7 mL/min/kg; in series [2] (iv 1 mg/kg), 7.95 mL/min/kg. The Vd turned out to be 1.65 L/kg in series [1] (iv 5 mg/kg) and 2.15 L/kg in series [2] (iv 1 mg/kg). Moreover, the half-life in series [1] (setting [4]) was 0.92 h; in series [1] (setting [6]) it was 0.983 h; in series [2] (setting [8]), 3.24 h; in series [2] (setting [10]), 3.54 h. Further, the figures for the bioavailability in series [1] and in series [2] were 85.7% and 81%, respectively. Further, the Tmax in series [1] (po 10 mg/kg) and in series [2] (po 5 mg/kg) was 0.5 h each time. Besides, the values for the Cmax in series [1] (po 10 mg/kg) and in series [2] (po 5 mg/kg) were 3030 ng/mL and 1260 ng/mL, respectively.
